In patent publication US20160177395A1, “BIOMARKERS FOR THE PREDICTION OF RENAL INJURY” (priority 2007, published 2016):
Where “and” joins values, the source holds several entries; their conditions need not be identical. Identical values can stand only once.

Test system: kidney tissues of treated or untreated rats
Assay: Real-time qRT-PCR of marker transcripts in kidney tissue panel, discovery stage (Table 22)
Assay type: in vivo, rat
Set-up: AI502869_DB71_seg0 normalized Real Time PCR expression: unit not given beside the values
Conditions: rat kidney
Method in brief: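 Rat kidney RNA, DNase-treated until PCR-negative, reverse transcribed with SuperscriptII; SYBR Green real-time PCR, 40 cycles, undetected samples set to Ct 41. Relative quantity from efficiency^-Ct (standard-curve efficiency), normalized to the geometric mean of four median-scaled housekeeping genes, then multiplied by a constant factor.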

[1] = day1, individual animals (F and M)
[2] = day5, individual animals (F and M)
[3] = day28, individual animals (F and M)

**Q.** With Gentamycin as the substance, how does the “AW919147_DB71_seg0 normalized Real Time PCR expression” value (day1, individual animals) read?
**A.** The value was 1.72 and 0.72 (2×) and 0.76 and 1.1 and 0.99.

**Q.** And the “BI293562_DB71_seg2 normalized Real Time PCR expression” value (day1, individual animals)?
**A.** Its value is 0.59 and 0.94 and 0.93 and 0.55 and 0.41.

**Q.** What about the “H31045_DB71_seg5 normalized Real Time PCR expression” value (day1, individual animals) of the same substance?
**A.** Its value is 0.27 and 0.22 and 0.73 and 0.16 and 0.19 and 0.15.

**Q.** And the “H31799_DB71_seg23 normalized Real Time PCR expression” value (day1, individual animals)?
**A.** The value was 1.19 and 0.88 and 0.93 and 1 and 1.2.

**Q.** What about the “H31883_DB71_seg13 normalized Real Time PCR expression” value (day1, individual animals) of the same substance?
**A.** Its value is 0.99 and 0.92 and 0.82 (2×) and 0.61 and 0.73.

**Q.** And the “H33998_DB71_seg19 normalized Real Time PCR” value [1]?
**A.** The value was 1.31 and 0.83 and 0.56 and 1.51 and 1.35 and 0.99.

**Q.** And the “MUSCYCG1R_DB81_seg15-17 normalized Real Time PCR” value [1]?
**A.** The value was 0.63 and 0.53 and 0.66 and 0.5 and 0.49 and 0.41.

**Q.** What about the “RATLRFI_DB71_seg9 normalized Real Time PCR” value [1] of the same substance?
**A.** Its value is 0.98 and 1.54 and 1.09 and 2.74 and 1.72 and 0.27.

**Q.** What about the “RATRAB13X_DB71_seg11-13 normalized Real Time PCR” value [1] of the same substance?
**A.** The value was 1.16 and 0.7 and 0.77 and 2.79 and 1.14 and 1.03.

**Q.** What about the “RNU24174_DB71_seg8 normalized Real Time PCR” value [1] of the same substance?
**A.** Its value is 0.47 (2×) and 0.5 and 0.74 and 0.37 and 0.26.

**Q.** And the “W41270_DB81_seg11 normalized Real Time PCR” value [1]?
**A.** Its value is 1.24 and 0.67 and 1.19 and 0.46 and 0.68 and 0.57.

**Q.** And the “W64472_DB81_seg2 normalized Real Time PCR” value [1]?
**A.** The value was 0.63 and 0.45 and 0.61 and 0.4 and 0.54 (2×).

**Q.** What about the “W83813_DB81_seg27 normalized Real Time PCR” value [1] of the same substance?
**A.** The value was 0.84 and 0.79 and 0.78 and 0.53 and 0.58 and 0.71.

**Q.** What about the “AA686189_DB71_seg6 normalized Real Time PCR expression” value (day5, individual animals) of the same substance?
**A.** Its value is 0.64 and 0.72 and 1.21 and 0.81 and 0.83 and 0.75.

**Q.** And the “AA799594_DB71_seg0 normalized Real Time PCR expression” value (day5, individual animals)?
**A.** The value was 0.99 and 0.89 (2×) and 1.52 and 0.56 and 1.04.

**Q.** What about the “AA964541_DB71_seg0 normalized Real Time PCR expression” value (day5, individual animals) of the same substance?
**A.** Its value is 0.86 and 0.58 and 0.91 and 0.76 and 0.87.

**Q.** And the “AI045075_DB71_seg6 normalized Real Time PCR expression” value (day5, individual animals)?
**A.** The value was 0.76 and 1.04 (2×) and 0.62 and 1.1 and 0.

**Q.** And the “AI454051_DB71_seg0 normalized Real Time PCR expression” value (day5, individual animals)?
**A.** Its value is 0.63 (2×) and 1.04 and 1.19 and 0.8 and 0.82.

**Q.** What about the “AI502869_DB71_seg0 normalized Real Time PCR expression” value (day5, individual animals) of the same substance?
**A.** Its value is 0.73 and 0.62 and 0.96 and 0.51 and 0.43 and 0.53.

**Q.** And the “AW919147_DB71_seg0 normalized Real Time PCR expression” value (day5, individual animals)?
**A.** Its value is 0.86 and 0.88 and 0.95 and 0.71 and 0.79 and 0.78.

**Q.** And the “BI293562_DB71_seg2 normalized Real Time PCR expression” value (day5, individual animals)?
**A.** The value was 0.95 and 0.76 and 2.8 and 2.32 and 1.61 and 0.93.

**Q.** And the “H31045_DB71_seg5 normalized Real Time PCR expression” value (day5, individual animals)?
**A.** The value was 0.52 and 1.01 and 0.4 and 1.57 and 1.47 and 0.33.

**Q.** What about the “H31799_DB71_seg23 normalized Real Time PCR expression” value (day5, individual animals) of the same substance?
**A.** Its value is 0.92 and 0.91 and 1.36 and 1.08 and 0.76 and 0.88.

**Q.** What about the “H31883_DB71_seg13 normalized Real Time PCR expression” value (day5, individual animals) of the same substance?
**A.** Its value is 0.73 and 0.55 and 0.91 and 1.01 and 0.7 and 0.65.

**Q.** And the “H33998_DB71_seg19 normalized Real Time PCR” value [2]?
**A.** The value was 1.9 and 1.5 and 2.19 and 1.91 and 0.83 and 1.16.

**Q.** And the “MUSCYCG1R_DB81_seg15-17 normalized Real Time PCR” value [2]?
**A.** The value was 1.51 (2×) and 1.61 and 0.95 and 0.79 and 1.02.

**Q.** And the “RATLRFI_DB71_seg9 normalized Real Time PCR” value [2]?
**A.** Its value is 0.48 and 0.43 and 4.15 and 1.35 and 1.13 and 0.59.

**Q.** What about the “RATRAB13X_DB71_seg11-13 normalized Real Time PCR” value [2] of the same substance?
**A.** The value was 0.9 (2×) and 0.82 and 1.12 and 0.61 and 0.8.

**Q.** What about the “RNU24174_DB71_seg8 normalized Real Time PCR” value [2] of the same substance?
**A.** The value was 0.31 and 0.22 and 0.81 and 0.65 and 0.36 and 0.4.

**Q.** And the “W41270_DB81_seg11 normalized Real Time PCR” value [2]?
**A.** The value was 2.04 and 1.34 and 2.42 and 2.03 and 1.08 and 1.2.

**Q.** What about the “W64472_DB81_seg2 normalized Real Time PCR” value [2] of the same substance?
**A.** Its value is 1.5 and 1.2 and 0.94 and 1.95 and 1.62 and 1.61.

**Q.** And the “W83813_DB81_seg27 normalized Real Time PCR” value [2]?
**A.** Its value is 2.07 and 1.82 and 1.7 and 1.35 and 0.88 and 1.4.

**Q.** What about the “AA686189_DB71_seg6 normalized Real Time PCR expression” value (day28, individual animals) of the same substance?
**A.** The value was 2.7 and 2.09 and 2.48 and 1.98 and 1.23 and 2.51.

**Q.** What about the “AA799594_DB71_seg0 normalized Real Time PCR expression” value (day28, individual animals) of the same substance?
**A.** Its value is 0.84 and 0.8 and 0.89 and 0.54 and 0.5 and 0.67.

**Q.** And the “AA964541_DB71_seg0 normalized Real Time PCR expression” value (day28, individual animals)?
**A.** The value was 3.19 and 1.77 and 2.16 and 3.33 and 1.45 and 3.18.

**Q.** What about the “AI045075_DB71_seg6 normalized Real Time PCR expression” value (day28, individual animals) of the same substance?
**A.** Its value is 2.09 and 3.14 and 1.74 and 1.25 and 1.99 and 1.29.

**Q.** What about the “AI454051_DB71_seg0 normalized Real Time PCR expression” value (day28, individual animals) of the same substance?
**A.** The value was 0.67 and 1 and 0.95 and 1.14 and 0.64 and 0.71.

**Q.** What about the “AI502869_DB71_seg0 normalized Real Time PCR expression” value (day28, individual animals) of the same substance?
**A.** Its value is 0.66 and 0.74 and 0.73 and 1.36 and 0.92 and 0.77.

**Q.** What about the “AW919147_DB71_seg0 normalized Real Time PCR expression” value (day28, individual animals) of the same substance?
**A.** Its value is 0.73 and 1.12 and 0.89 and 0.75 and 0.57 and 0.93.

**Q.** What about the “BI293562_DB71_seg2 normalized Real Time PCR expression” value (day28, individual animals) of the same substance?
**A.** Its value is 2.01 and 1.19 and 0.81 and 0.63 and 0.72 and 1.16.

**Q.** And the “H31045_DB71_seg5 normalized Real Time PCR expression” value (day28, individual animals)?
**A.** Its value is 0.79 and 0.84 and 0.67 and 1.11 and 4.65 and 0.45.

**Q.** And the “H31799_DB71_seg23 normalized Real Time PCR expression” value (day28, individual animals)?
**A.** Its value is 0.88 and 1.05 and 1.17 (2×) and 0.37.

**Q.** And the “H31883_DB71_seg13 normalized Real Time PCR expression” value (day28, individual animals)?
**A.** Its value is 0.88 and 0.98 and 0.96 and 1.05 and 0.64 and 0.8.

**Q.** What about the “H33998_DB71_seg19 normalized Real Time PCR” value [3] of the same substance?
**A.** The value was 0.4 (2×) and 0.7 and 0.56 and 0.49 and 0.42.

**Q.** And the “MUSCYCG1R_DB81_seg15-17 normalized Real Time PCR” value [3]?
**A.** Its value is 0.69 and 0.62 and 0.57 and 0.65 and 0.56 and 0.54.

**Q.** What about the “RATLRFI_DB71_seg9 normalized Real Time PCR” value [3] of the same substance?
**A.** The value was 5.63 and 4.17 and 2.43 and 2.56 and 1.59 and 2.51.

**Q.** And the “RATRAB13X_DB71_seg11-13 normalized Real Time PCR” value [3]?
**A.** Its value is 0.83 and 1.12 and 0.88 and 1.17 and 0.76 and 1.22.

**Q.** And the “RNU24174_DB71_seg8 normalized Real Time PCR” value [3]?
**A.** The value was 1.53 and 1.2 and 0.59 and 1.91 and 0.69 and 0.65.

**Q.** And the “W41270_DB81_seg11 normalized Real Time PCR” value [3]?
**A.** Its value is 0.94 and 0.81 (2×) and 1.42 and 0.75 and 0.84.

**Q.** And the “W64472_DB81_seg2 normalized Real Time PCR” value [3]?
**A.** Its value is 0.92 and 0.66 and 0.54 and 1.49 and 0.84 and 0.81.

**Q.** What about the “W83813_DB81_seg27 normalized Real Time PCR” value [3] of the same substance?
**A.** Its value is 0.45 and 0.34 and 0.62 and 0.78 and 0.54 and 0.38.
